Molecular target: GLP1R (Homo sapiens, UniProt P43220)
Assay: GLP1R cAMP HTRF assay, HEK293/GLP-1R/CRE/Luc (HEK293T cells)
Format: cell-based
Conditions: read-out: EC50
Protocol: GLP-1R-mediated agonist activity was determined with a cell-based functional assay utilizing an HTRF (Homogeneous Time-Resolved Fluorescence) cAMP detection kit (cAMP Dynamic 2 Assay Kit; CisBio cat #62AM4PEC) that measures cAMP levels in the cell. The method is a competitive immunoassay between native cAMP produced by the cells and exogenous cAMP labeled with the dye d2. The tracer binding is visualized by a mAb anti-cAMP labeled with Cryptate. The specific signal (i.e., energy transfer) is inversely proportional to the concentration of cAMP in either standard or experimental sample.
A cell line stably expressing the receptor was isolated.
Varying concentrations of each compound to be tested (in DMSO) were diluted in DMSO to obtain 200× compound working solution first and then 50 nl compounds were added to a white 384-well assay plate (Greiner 784075) with ECHO. The final DMSO concentration was 0.5%. The compound concentration range may be adjusted at any time.
Cells were removed from cryopreservation, re-suspended in 5 mL of Dulbecco's Phosphate Buffered Saline (DPBS-Sigma Cat # D8537) and centrifuged at 900 g for 5 min at 22° C. The cell pellet was then re-suspended in 1 mL of assay buffer [DPBS with 500 μM IBMX (Sigma #15879) and 0.1% BSA (Sigma # A1933). IBMX and BSA were freshly added on the day of assay]. A 10 μL sample of the cell suspension was counted on an Invitrogen Countess II to determine cell viability and cell count per mL. The remaining cell suspension was then adjusted with assay buffer to deliver 1000 viable cells per well using a Matrix Combi Multidrop reagent dispenser. 10 μL cell suspensions were added to each well of the assay plate which already contains compound. The plate was sealed and incubated at 37° C. with 5% CO2 for 30 minutes.
Following the 30 minute incubation, 5 μL of labeled d2 cAMP and 5 μL of anti-cAMP antibody (both diluted 1:20 in cell lysis buffer; as described in the manufacturer's assay protocol) were added to each well of the assay plate. The plates w ere then incubated at room temperature and after 60 minutes, changes in the HTRF signal were read with an Envision multi-label plate reader using excitation of 330 nm and emissions of 615 and 665 nm. Raw data were converted to nM cAMP by interpolation from a cAMP standard curve (as described in the manufacturer's assay protocol) and the percent effect was determined relative to a saturating concentration of the full agonist GLP-17-37 (10 nM) included on each plate. EC50 determinations were made from agonist dose-response curves analyzed with a curve fitting program using a 4-parameter logistic dose response equation.
3) Anti-cAMP antibody-cryptate working solution preparation • c) The lyophilisate was reconstituted with appropriate amount of distilled water according to manufacturer's instruction to make working stock which can be aliquoted and frozen (−20° C.). • d) The working stock solution was diluted 1:20 in the conjugate and lysis buffer before use. Procedures Procedures for Cell Suspension Preparation • 1. Frozen cells were thawed very briefly in a 37° C. water bath under sterile conditions until just before ice completely melt (for about 1 minute) with a continuous agitation. Caution was taken because a longer incubation could result in cell death. • 2. DMSO was removed from the media by carefully transferring thawed cells to a sterile 15/50 mL tube, filling a tube with 10-50 mL of complete media pre-warmed to 37° C., and allowing the cells to sit 5 min before centrifuging at 900 rpm for 5 minutes for cell collection. • 3. The cells were resuspended with assay buffer. • 4. For stable GLP1-R assay, the optimized cell density is 1000 cells/well. Caution was taken because cell density optimization was crucial and needed to be optimized in different laboratories. The level of cAMP produced by the cells must fall within the linear range of the standard curve.

GLP1R, sequence (P43220 24-463): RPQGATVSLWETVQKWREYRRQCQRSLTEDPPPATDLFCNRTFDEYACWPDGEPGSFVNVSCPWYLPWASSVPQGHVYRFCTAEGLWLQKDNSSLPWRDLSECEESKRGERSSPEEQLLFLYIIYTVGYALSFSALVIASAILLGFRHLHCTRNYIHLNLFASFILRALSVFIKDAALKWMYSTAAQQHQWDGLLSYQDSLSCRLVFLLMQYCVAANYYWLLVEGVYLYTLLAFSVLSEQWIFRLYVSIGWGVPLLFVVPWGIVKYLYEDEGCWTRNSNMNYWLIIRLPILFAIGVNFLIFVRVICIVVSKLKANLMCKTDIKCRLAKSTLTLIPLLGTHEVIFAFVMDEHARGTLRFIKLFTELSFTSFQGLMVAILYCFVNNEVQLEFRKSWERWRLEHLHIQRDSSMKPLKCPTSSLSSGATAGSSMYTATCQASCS

| SMILES | EC50 [µM] |
| --- | --- |
| O=c1[nH]c(-c2ccc3nc(CN4CC=C(c5cccc(OCc6ccc(Cl)cc6F)n5)CC4)n(C[C@@H]4CCO4)c3c2)no1 [Compound 62, (S)-3-(2-((4-(6-(4-chloro-2-fluorobenzyloxy)pyridin-2-yl)-5,6-dihydropyridin-1(2H)-yl)methyl)-1-(oxetan-2-ylmethyl)-1H-benzo[d]imidazol-6-yl)-1,2,4-oxadiazol-5(4H)-one] | ≤ 0.15 |
| O=C(O)c1ccc2nc(CN3CC=C(c4ncc(F)c(OCc5ccc(C#CC6CC6)cc5F)n4)CC3)n(C[C@@H]3CCO3)c2c1 [Compound 209, (S)-2-((4-(4-((4-(cyclopropylethynyl)-2-fluorobenzyl)oxy)-5-fluoropyrimidin-2-yl)-3,6-dihydropyridin-1(2H)-yl)methyl)-1-(oxetan-2-ylmethyl)-1H-benzo[d]imidazole-6-carboxylic add] | ≤ 0.015 |
| O=C(O)c1ccc2nc(CN3CC=C(c4cccc(OCc5ccc(Cl)cn5)n4)CC3)n(C[C@@H]3CCO3)c2c1 [Compound 116, (S)-2-((6-((5-chloropyridin-2-yl)methoxy)-3′,6′-dihydro-[2H′-bipyridin]-1′(2′H)-yl)methyl)-1-(oxetan-2-ylmethyl)-1H-benzo[d]imidazole-6-carboxylic add] | ≤ 0.015 |
| O=C(O)c1ccc2nc(CN3CC=C(c4cccc(OCc5cccnc5Cl)n4)CC3)n(C[C@@H]3CCO3)c2c1 [Compound 163] | ≤ 0.015 |
| O=C(O)c1ccc2nc(CN3CC=C(c4cccc(OCc5ccc(OC(F)(F)F)nc5)n4)CC3)n(C[C@@H]3CCO3)c2c1 [Compound 121, (S)-1-(oxetan-2-ylmethyl)-2-((6-((6-(trifluoromethoxy)pyridin-3-yl)methoxy)-3′,6′-dihydro-[2,4′-bipyridin]-1′(2′H)-yl)methyl)-1H-benzo[d]imidazole-6-carboxylic acid] | ≤ 0.15 |
| O=C(O)c1ccc2nc(CN3CC=C(c4cccc(OCc5cccc(C(F)(F)F)c5)n4)CC3)n(C[C@@H]3CCO3)c2c1 [Compound 134, (S)-1-(oxetan-2-ylmethyl)-2-((6-((3-(trifluoromethyl)benzyl)oxy)-3′,6′-dihydro-[2,4′-bipyridin]-1′(2H)-yl)methyl)-1H-benzo[d]imidazole-6-carboxylic acid] | ≤ 0.015 |
| O=C(NS(=O)(=O)C(F)(F)F)c1ccc2nc(CN3CC=C(c4cccc(OCc5ccc(Cl)cc5F)n4)CC3)n(C[C@@H]3CCO3)c2c1 [Compound 173, (S)-2-((6-((4-chloro-2-fluorobenzyl)oxy)-3′,6′-dihydro-[2,4′-bipyridin]-1′(2′H)-yl)methyl)-1-(oxetan-2-ylmethyl)-N-((trifluoromethyl)sulfonyl)-1H-benzo[d]imidazole-6-carboxamide] | ≤ 1 |
| O=C(O)c1ccc2nc(CN3CC=C(c4ccc5c(n4)N(Cc4ccc(Cl)cc4F)CCCO5)CC3)n(C[C@@H]3CCO3)c2c1 [Compound 59, (S)-2-((4-(5-(4-chloro-2-fluorobenzyl)-2,3,4,5-tetrahydropyrido[3,2-b][1,4]oxazepin-7-yl)-3,6-dihydropyridin-1(2H)-yl)methyl)-1-(oxetan-2-ylmethyl)-1H-benzo[d]imidazole-6-carboxylic add] | > 1 |
| O=C(O)c1ccc2nc(CN3CC=C(c4nccc(OCc5ccc(Cl)cc5F)n4)CC3)n(C[C@@H]3CCO3)c2c1 [Compound 33, (S)-2-((4-(4-(4-chloro-2-fluorobenzyloxy)pyrimidin-2-yl)-5,6-dihydropyridin-1(2H)-yl)methyl)-1-(oxetan-2-ylmethyl)-1 h-benzo[d]imidazole-6-carboxylic acid] | ≤ 0.015 |
| N#Cc1ccc(COc2cccc(C3=CCN(Cc4nc5ccc(C(=O)O)cc5n4C[C@@H]4CCO4)CC3)c2)c(F)c1 [Compound 175, (S)-2-((4-(3-((4-cyano-2-fluorobenzyl)oxy)phenyl)-3,6-dihydropyridin-1(2H)-yl)methyl)-1-(oxetan-2-ylmethyl)-1H-benzo[d]imidazole-6-carboxylic acid] | ≤ 0.015 |
| O=C(O)c1ccc2nc(CN3CCN(c4cccc(OCc5ccc(C#CC6CC6)cc5F)c4)CC3)n(C[C@@H]3CCO3)c2c1 [Compound 190, (S)-2-((4-(3-((4-(cyclopropylethynyl)-2-fluorobenzyl)oxy)phenyl)piperazin-1-yl)methyl)-1-(oxetan-2-ylmethyl)-1H-benzo[d]imidazole-6-carboxylic acid] | ≤ 0.15 |
| O=C(O)c1ccc2nc(CN3CC=C(c4nccc(OCc5ccc(F)cc5F)n4)CC3)n(C[C@@H]3CCO3)c2c1 [Compound 214, (S)-2-((4-(4-((2,4-difluorobenzyl)oxy)pyrimidin-2-yl)-3,6-dihydropyridin-1(2H)-yl)methyl)-1-(oxetan-2-ylmethyl)-1H-benzo[d]imidazole-6-carboxylic add] | ≤ 0.15 |
| O=C(O)c1ccc2nc(CN3CCN(c4ncnc(OCc5ccc(Cl)cc5F)n4)CC3)n(C[C@@H]3CCO3)c2c1 [Compound 167, (S)-2-((4-(4-((4-chloro-2-fluorobenzyl)oxy)-1,3,5-triazin-2-yl)piperazin-1-yl)methyl)-1-(oxetan-2-ylmethyl)-1H-benzo[d]imidazole-6-carboxylic acid] | ≤ 0.15 |
| COc1ccc(COc2cccc(C3=CCN(Cc4nc5ccc(C(=O)O)cc5n4C[C@@H]4CCO4)CC3)n2)cc1 [Compound 118, (S)-2-((6-((4-methoxybenzyl)oxy)-3′,6′-dihydro-[2,4′-bipyridin]-1′(2H)-yl)methyl)-1-(oxetan-2-ylmethyl)-1H-benzo[d]imidazole-6-carboxylic acid] | ≤ 0.015 |
| O=C(O)c1ccc2cc(CN3CCN(c4cccc(OCc5ccc(Cl)cc5F)n4)CC3)n(C[C@@H]3CCO3)c2c1 [Compound 49, (S)-2-((4-(6-(4-chloro-2-fluorobenzyloxy)pyridin-2-yl)piperazin-1-yl)methyl)-1-(oxetan-2-ylmethyl)-1 h-indole-6-carboxylic acid] | > 1 |
| O=C(O)c1ccc2nc(CN3CC=C(c4ccc(F)c(OCc5ccc(Cl)cc5F)c4F)CC3)n(C[C@@H]3CCO3)c2c1 [Compound 63, (S)-2-((4-(3-(4-chloro-2-fluorobenzyloxy)-2,4-difluorophenyl)-5,6-dihydropyridin-1(2H)-yl)methyl)-1-(oxetan-2-ylmethyl)-1H-benzo[d]imidazole-6-carboxylic acid] | ≤ 1 |
| O=C(O)c1ccc2nc(CN3CCN(c4cc(OCc5ccc(Cl)cc5F)c(F)cc4F)CC3)n(C[C@@H]3CCO3)c2c1 [Compound 188] | ≤ 0.15 |
| O=C(O)c1ccc2nc(CN3CC4CC3CN4c3cccc(OCc4ccc(Cl)cc4F)n3)n(C[C@@H]3CCO3)c2c1 (stereo partly drawn) [Compound 16, 2-((5-(6-((4-chloro-2-fluorobenzyl)oxy)pyridin-2-yl)-2,5-diazabicyclo[2.2.1]heptan-2-yl)methyl)-1-(((S)-oxetan-2-yl)methyl)-1 h-benzo[d]imidazole-6-carboxylic acid] | ≤ 0.15 |
| N#Cc1ccc(COc2ccnc(C3=CCN(Cc4nc5ccc(C(=O)O)cc5n4C[C@@H]4CCO4)CC3)n2)c(F)c1 [Compound 176, (S)-2-((4-(4-((4-cyano-2-fluorobenzyl)oxy)pyrimidin-2-yl)-3,6-dihydropyridin-1(2H)-yl)methyl)-1-(oxetan-2-ylmethyl)-1H-benzo[d]imidazole-6-carboxylic add] | ≤ 0.015 |

— patent US10844049B2, “GLP-1R agonists and uses thereof” (QILU REGOR THERAPEUTICS INC., priority 2018, dated 2020)
